The numbers were not newly measured in patent US20040235753A1, “Oxytocin agonists” (priority 2001, published 2004), which cites them from elsewhere.

Each structure is given as a SMILES string. Where two headings read alike, the source gives them in different places.

This data set relates to erectile response. The following applies: male rats.

For the compound `CC[C@H](C)[C@@H]1NC(=O)[C@H](Cc2ccc(O)cc2)NC(=O)[C@@H](N)CSSC[C@@H](C(=O)N2CCC[C@H]2C(=O)N[C@@H](CC(C)C)C(=O)NCC(N)=O)NC(=O)[C@H](CC(N)=O)NC(=O)[C@H](CCC(N)=O)NC1=O` [OT, oxytocin], the erectogenic activity result reads like this: (i.c.v.) “erectogenic”; (i.v., doses required up to two orders of magnitude greater than i.c.v.) “erectogenic activity”.
